From PubChem BioAssay (NCI)
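Abbreviation: GI50, concentration required for 50% inhibition of growth. TGI denotes the concentration required for complete inhibition of growth.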

Assays:
Assay in all cases: inhibition of tumour cell growth, NCI panel, 384-well format
786-0 renal = system: 786-0 renal
NCI-H322M lung = system: NCI-H322M lung
HOP-62 NSCLC = system: HOP-62 NSCLC
HCT-15 colon = system: HCT-15 colon
RXF 393 renal = system: RXF 393 renal
COLO 205 colon = system: COLO 205 colon
M14 melanoma = system: M14 melanoma
MCF7 breast = system: MCF7 breast
NCI-H23 lung = system: NCI-H23 lung
HOP-92 NSCLC = system: HOP-92 NSCLC
MDA-MB-231 breast = system: MDA-MB-231 breast
EKVX NSCLC = system: EKVX NSCLC
UACC-62 melanoma = system: UACC-62 melanoma
MDA-MB-468 breast = system: MDA-MB-468 breast
NCI-H522 lung = system: NCI-H522 lung
NCI/ADR-RES ovarian = system: NCI/ADR-RES ovarian
A498 renal = system: A498 renal
ACHN renal = system: ACHN renal
KM12 colon = system: KM12 colon
OVCAR-4 ovarian = system: OVCAR-4 ovarian
OVCAR-3 ovarian = system: OVCAR-3 ovarian
SN12C renal = system: SN12C renal
TK-10 renal = system: TK-10 renal
A549 NSCLC = system: A549 NSCLC
HCC-2998 colon = system: HCC-2998 colon
NCI-H226 lung = system: NCI-H226 lung
HL-60(TB) leukemia = system: HL-60(TB) leukemia
SK-MEL-28 melanoma = system: SK-MEL-28 melanoma
NCI-H460 NSCLC = system: NCI-H460 NSCLC
K-562 leukemia = system: K-562 leukemia
IGROV1 ovarian = system: IGROV1 ovarian
CCRF-CEM leukemia = system: CCRF-CEM leukemia
SW-620 colon = system: SW-620 colon
T-47D breast = system: T-47D breast
CAKI-1 renal = system: CAKI-1 renal
OVCAR-5 ovarian = system: OVCAR-5 ovarian
UO-31 renal = system: UO-31 renal
SF-295 CNS = system: SF-295 CNS
MOLT-4 leukemia = system: MOLT-4 leukemia
SR leukemia = system: SR leukemia
U251 glioblastoma = system: U251 glioblastoma
BT-549 breast = system: BT-549 breast
MDA-MB-435 melanoma = system: MDA-MB-435 melanoma
LOX IMVI melanoma = system: LOX IMVI melanoma
DU-145 prostate = system: DU-145 prostate
SK-MEL-5 melanoma = system: SK-MEL-5 melanoma
SK-OV-3 ovarian = system: SK-OV-3 ovarian

With `CC[C@H](Nc1ncnc2nc[nH]c12)c1nc2cccc(F)c2c(=O)n1-c1ccccc1` the GI50 ([…]-0 renal) was 10.6 µM, the TGI (786-0 renal) was greater than 100 µM and the GI50 (NCI-H322M lung) was 34.7 µM. The TGI (NCI-H322M lung) was greater than 100 µM, the GI50 (HOP-62 NSCLC) was greater than 59.5 µM and the TGI (HOP-62 NSCLC) was greater than 100 µM. It also gave a GI50 (HCT-15 colon) of 30.1 µM, a TGI (HCT-15 colon) greater than 100 µM and a GI50 (RXF 393 renal) of 1.4 µM. It also gave a TGI (RXF 393 renal) of 9.61 µM, a GI50 (COLO 205 colon) greater than 67.3 µM and a TGI (COLO 205 colon) greater than 100 µM. It also gave a GI50 (M14 melanoma) greater than 69 µM, a TGI (M14 melanoma) greater than 100 µM and a GI50 (MCF7 breast) of 7.96 µM. The TGI (MCF7 breast) was 69.5 µM, the GI50 (NCI-H23 lung) was 38.2 µM and the TGI (NCI-H23 lung) was greater than 100 µM. For the same compound, the GI50 (HOP-92 NSCLC) was 12.2 µM, the TGI (HOP-92 NSCLC) was 98.5 µM and the GI50 (MDA-MB-231 breast) was 73.6 µM. The TGI (MDA-MB-231 breast) was greater than 100 µM, the GI50 (EKVX NSCLC) was 22.4 µM and the TGI (EKVX NSCLC) was greater than 84.8 µM. The GI50 (UACC-62 melanoma) was 19.4 µM, the TGI (UACC-62 melanoma) was greater than 100 µM and the GI50 (MDA-MB-468 breast) was 4.58 µM. For the same compound, the TGI (MDA-MB-468 breast) was 15.9 µM, the GI50 (NCI-H522 lung) was 26.1 µM and the TGI (NCI-H522 lung) was greater than 100 µM. The GI50 (NCI/ADR-RES ovarian) was 54.7 µM, the TGI (NCI/ADR-RES ovarian) was greater than 100 µM and the GI50 (A498 renal) was 4.38 µM. The TGI (A498 renal) was 23 µM, the GI50 (ACHN renal) was 13.2 µM and the TGI (ACHN renal) was greater than 100 µM. It also gave a GI50 (KM12 colon) of 24.2 µM, a TGI (KM12 colon) greater than 100 µM and a GI50 (OVCAR-4 ovarian) of 64.6 µM. It also gave a TGI (OVCAR-4 ovarian) greater than 100 µM, a GI50 (OVCAR-3 ovarian) of 8.68 µM and a TGI (OVCAR-3 ovarian) greater than 73.4 µM. It also gave a GI50 (SN12C renal) of 16.6 µM, a TGI (SN12C renal) greater than 100 µM and a GI50 (TK-10 renal) greater than 38.3 µM. It also gave a TGI (TK-10 renal) greater than 94.5 µM, a GI50 (A549 NSCLC) of 32 µM and a TGI (A549 NSCLC) greater than 100 µM. The GI50 (HCC-2998 colon) was 36.7 µM, the TGI (HCC-2998 colon) was greater than 93.5 µM and the GI50 (NCI-H226 lung) was 37 µM. For the same compound, the TGI (NCI-H226 lung) was greater than 100 µM, the GI50 (HL-60(TB) leukemia) was 4.61 µM and the TGI (HL-60(TB) leukemia) was 17.9 µM. The GI50 (SK-MEL-28 melanoma) was 27.5 µM, the TGI (SK-MEL-28 melanoma) was greater than 100 µM and the GI50 (NCI-H460 NSCLC) was 38 µM. It also gave a TGI (NCI-H460 NSCLC) greater than 100 µM, a GI50 (K-562 leukemia) of 24 µM and a TGI (K-562 leukemia) of 82.9 µM. It also gave a GI50 (IGROV1 ovarian) of 4.31 µM, a TGI (IGROV1 ovarian) of 14.9 µM and a GI50 (CCRF-CEM leukemia) of 5.93 µM. The TGI (CCRF-CEM leukemia) was 25.8 µM, the GI50 (SW-620 colon) was greater than 75.8 µM and the TGI (SW-620 colon) was greater than 100 µM. For the same compound, the GI50 (T-47D breast) was 5.22 µM, the TGI (T-47D breast) was 56.4 µM and the GI50 (CAKI-1 renal) was 7.37 µM. It also gave a TGI (CAKI-1 renal) greater than 67.4 µM, a GI50 (OVCAR-5 ovarian) greater than 57.4 µM and a TGI (OVCAR-5 ovarian) greater than 100 µM. For the same compound, the GI50 (UO-31 renal) was 5.12 µM, the GI50 (SF-295 CNS) was 23.1 µM and the TGI (SF-295 CNS) was greater than 76.3 µM. It also gave a GI50 (MOLT-4 leukemia) of 10 µM, a TGI (MOLT-4 leukemia) of 22.1 µM and a GI50 (SR leukemia) of 16.2 µM. For the same compound, the TGI (SR leukemia) was 32.6 µM, the GI50 (U251 glioblastoma) was greater than 71.4 µM and the TGI (U251 glioblastoma) was greater than 100 µM. For the same compound, the GI50 (BT-549 breast) was 4.22 µM, the TGI (BT-549 breast) was 48.1 µM and the GI50 (MDA-MB-435 melanoma) was 25.6 µM. The TGI (MDA-MB-435 melanoma) was 57.1 µM, the GI50 (LOX IMVI melanoma) was 43.2 µM and the TGI (LOX IMVI melanoma) was greater than 100 µM. It also gave a GI50 (DU-145 prostate) of 45 µM, a TGI (DU-145 prostate) greater than 100 µM and a GI50 (SK-MEL-5 melanoma) of 7.4 µM. The TGI (SK-MEL-5 melanoma) was greater than 45.7 µM, the GI50 (SK-OV-3 ovarian) was 30.6 µM and the TGI (SK-OV-3 ovarian) was greater than 83.3 µM.

`CC(C)Nc1cc(-c2c[nH]c(C(=O)N[C@H](CO)c3cccc(Cl)c3)c2)c(Cl)cn1` showed a GI50 ([…]-0 renal) of 3.58 µM, a TGI (786-0 renal) of 17.1 µM and a GI50 (NCI-H322M lung) of 2.88 µM. For the same compound, the TGI (NCI-H322M lung) was 19.4 µM, the GI50 (HOP-62 NSCLC) was 3.19 µM and the TGI (HOP-62 NSCLC) was 19.4 µM. For the same compound, the GI50 (HCT-15 colon) was 4.5 µM, the TGI (HCT-15 colon) was 17.9 µM and the GI50 (RXF 393 renal) was 4.14 µM. For the same compound, the TGI (RXF 393 renal) was 16.5 µM, the GI50 (COLO 205 colon) was 0.134 µM and the TGI (COLO 205 colon) was 1.07 µM. For the same compound, the GI50 (M14 melanoma) was 0.0842 µM, the TGI (M14 melanoma) was 0.328 µM and the GI50 (MCF7 breast) was 3.72 µM. The TGI (MCF7 breast) was 15.9 µM, the GI50 (NCI-H23 lung) was 0.132 µM and the TGI (NCI-H23 lung) was 4.12 µM. The GI50 (HOP-92 NSCLC) was 0.445 µM, the TGI (HOP-92 NSCLC) was 2.13 µM and the GI50 (MDA-MB-231 breast) was 1.37 µM. For the same compound, the TGI (MDA-MB-231 breast) was 17.1 µM, the GI50 (EKVX NSCLC) was 3.46 µM and the TGI (EKVX NSCLC) was 17.3 µM. For the same compound, the GI50 (UACC-62 melanoma) was 0.0563 µM, the TGI (UACC-62 melanoma) was 0.895 µM and the GI50 (MDA-MB-468 breast) was 6.13 µM. It also gave a TGI (MDA-MB-468 breast) of 16.1 µM, a GI50 (NCI-H522 lung) of 1.8 µM and a TGI (NCI-H522 lung) of 13.2 µM. It also gave a GI50 (NCI/ADR-RES ovarian) of 9.98 µM, a TGI (NCI/ADR-RES ovarian) of 22.2 µM and a GI50 (A498 renal) of 1.76 µM. The TGI (A498 renal) was 12.7 µM, the GI50 (ACHN renal) was 2.95 µM and the TGI (ACHN renal) was 16.3 µM. The GI50 (KM12 colon) was 0.547 µM, the TGI (KM12 colon) was 12.8 µM and the GI50 (OVCAR-4 ovarian) was 11.6 µM. For the same compound, the TGI (OVCAR-4 ovarian) was 24 µM, the GI50 (OVCAR-3 ovarian) was 4.95 µM and the TGI (OVCAR-3 ovarian) was 19.6 µM. For the same compound, the GI50 (SN12C renal) was 6.15 µM, the TGI (SN12C renal) was 21.4 µM and the GI50 (TK-10 renal) was 2.6 µM. It also gave a TGI (TK-10 renal) of 17.3 µM, a GI50 (A549 NSCLC) of 0.641 µM and a TGI (A549 NSCLC) of 13.4 µM. For the same compound, the GI50 (HCC-2998 colon) was 0.0896 µM, the TGI (HCC-2998 colon) was 0.309 µM and the GI50 (NCI-H226 lung) was 1.34 µM. For the same compound, the TGI (NCI-H226 lung) was 16.6 µM, the GI50 (HL-60(TB) leukemia) was 0.184 µM and the TGI (HL-60(TB) leukemia) was 1.17 µM. The GI50 (SK-MEL-28 melanoma) was 0.12 µM, the TGI (SK-MEL-28 melanoma) was 0.509 µM and the GI50 (NCI-H460 NSCLC) was 0.758 µM. For the same compound, the TGI (NCI-H460 NSCLC) was 13.6 µM, the GI50 (K-562 leukemia) was 1.45 µM and the TGI (K-562 leukemia) was 13.4 µM. The GI50 (IGROV1 ovarian) was 0.496 µM, the TGI (IGROV1 ovarian) was 7.2 µM and the GI50 (CCRF-CEM leukemia) was 2.89 µM. The TGI (CCRF-CEM leukemia) was 12.5 µM, the GI50 (SW-620 colon) was 0.13 µM and the TGI (SW-620 colon) was 1.82 µM. For the same compound, the GI50 (T-47D breast) was 9.03 µM, the TGI (T-47D breast) was 21.9 µM and the GI50 (CAKI-1 renal) was 1.04 µM. The TGI (CAKI-1 renal) was 16.5 µM, the GI50 (OVCAR-5 ovarian) was 0.567 µM and the TGI (OVCAR-5 ovarian) was 16.2 µM. For the same compound, the GI50 (UO-31 renal) was 3.23 µM, the TGI (UO-31 renal) was 16.8 µM and the GI50 (SF-295 CNS) was 7.68 µM. For the same compound, the TGI (SF-295 CNS) was 20.2 µM, the GI50 (MOLT-4 leukemia) was 1.66 µM and the TGI (MOLT-4 leukemia) was 6.58 µM. The GI50 (SR leukemia) was 1.01 µM, the TGI (SR leukemia) was 2.21 µM and the GI50 (U251 glioblastoma) was 2 µM. For the same compound, the TGI (U251 glioblastoma) was 15.8 µM, the GI50 (BT-549 breast) was 3.37 µM and the TGI (BT-549 breast) was 15.4 µM. For the same compound, the GI50 (MDA-MB-435 melanoma) was 0.314 µM, the TGI (MDA-MB-435 melanoma) was 13.4 µM and the GI50 (LOX IMVI melanoma) was 0.184 µM. The TGI (LOX IMVI melanoma) was 0.883 µM, the GI50 (DU-145 prostate) was 9.92 µM and the TGI (DU-145 prostate) was 24.3 µM. The GI50 (SK-MEL-5 melanoma) was 0.265 µM, the TGI (SK-MEL-5 melanoma) was 2.04 µM and the GI50 (SK-OV-3 ovarian) was 6.86 µM. The TGI (SK-OV-3 ovarian) was 19.6 µM.
